How the values were obtained:
[1] = molecular target: T1, Lysine-specific demethylase 4C (Homo sapiens, UniProt Q9H3R0); test: Inhibition of KDM4C (unknown origin) using H3K9me3 as substrate after 24 hrs by alphascreen assay
T1 sequence (Q9H3R0 whole entry): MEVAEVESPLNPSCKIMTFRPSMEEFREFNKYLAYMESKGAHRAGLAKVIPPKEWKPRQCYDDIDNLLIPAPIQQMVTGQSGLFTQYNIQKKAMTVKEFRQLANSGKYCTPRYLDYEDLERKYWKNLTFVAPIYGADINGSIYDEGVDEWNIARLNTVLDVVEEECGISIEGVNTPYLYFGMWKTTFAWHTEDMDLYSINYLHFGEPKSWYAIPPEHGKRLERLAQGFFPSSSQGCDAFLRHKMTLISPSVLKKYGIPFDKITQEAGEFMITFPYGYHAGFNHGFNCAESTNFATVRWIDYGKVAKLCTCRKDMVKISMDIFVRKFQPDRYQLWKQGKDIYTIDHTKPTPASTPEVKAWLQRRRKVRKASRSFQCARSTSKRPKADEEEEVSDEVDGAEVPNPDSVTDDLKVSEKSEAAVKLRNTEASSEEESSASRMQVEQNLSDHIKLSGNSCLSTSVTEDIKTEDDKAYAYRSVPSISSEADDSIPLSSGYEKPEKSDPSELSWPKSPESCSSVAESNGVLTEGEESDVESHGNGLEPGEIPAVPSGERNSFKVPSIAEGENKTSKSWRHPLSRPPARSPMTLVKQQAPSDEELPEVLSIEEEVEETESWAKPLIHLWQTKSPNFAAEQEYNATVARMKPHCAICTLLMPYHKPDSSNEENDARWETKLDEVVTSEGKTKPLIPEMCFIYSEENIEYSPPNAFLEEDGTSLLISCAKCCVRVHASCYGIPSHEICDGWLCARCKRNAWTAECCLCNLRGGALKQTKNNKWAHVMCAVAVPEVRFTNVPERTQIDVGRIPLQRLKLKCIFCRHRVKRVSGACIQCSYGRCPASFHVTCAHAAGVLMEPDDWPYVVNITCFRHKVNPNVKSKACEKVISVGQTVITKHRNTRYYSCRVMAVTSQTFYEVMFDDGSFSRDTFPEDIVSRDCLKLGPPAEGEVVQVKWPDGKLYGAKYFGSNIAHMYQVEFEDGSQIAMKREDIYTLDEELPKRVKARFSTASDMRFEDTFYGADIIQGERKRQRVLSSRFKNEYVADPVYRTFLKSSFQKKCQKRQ

[2] = molecular target: Lysine-specific demethylase 4E (Homo sapiens, UniProt B2RXH2); test: Inhibition of KDM4E (unknown origin) preincubated for 15 mins followed by histone substrate addition measured after 1 hr by alphascreen assay
Lysine-specific demethylase 4E, sequence (B2RXH2 whole entry): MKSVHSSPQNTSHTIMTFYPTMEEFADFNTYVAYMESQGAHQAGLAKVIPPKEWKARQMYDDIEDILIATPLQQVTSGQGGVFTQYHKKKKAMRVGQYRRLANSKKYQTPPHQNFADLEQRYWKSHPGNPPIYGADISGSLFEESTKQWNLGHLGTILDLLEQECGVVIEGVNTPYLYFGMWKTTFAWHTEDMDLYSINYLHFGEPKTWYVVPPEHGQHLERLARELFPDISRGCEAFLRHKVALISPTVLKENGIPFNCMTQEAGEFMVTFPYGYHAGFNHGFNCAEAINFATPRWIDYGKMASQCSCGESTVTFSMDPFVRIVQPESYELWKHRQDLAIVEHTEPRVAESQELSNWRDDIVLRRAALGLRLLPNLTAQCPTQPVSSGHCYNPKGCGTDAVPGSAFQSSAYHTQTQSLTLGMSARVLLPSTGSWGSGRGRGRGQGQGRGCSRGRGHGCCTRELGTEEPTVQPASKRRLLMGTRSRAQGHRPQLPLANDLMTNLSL

[3] = Antiproliferative activity against human BT474 cells assessed as reduction in cell viability after 120 hrs by ATPlite assay; type: functional, cell-based; settings: BT-474, 120 h
[4] = molecular target: T2, Lysine-specific demethylase 3A (Homo sapiens, UniProt Q9Y4C1); test: Inhibition of recombinant human N-terminal FLAG-tagged KDM3A (2 to 1322 residues) expressed in baculovirus infected sf9 cells using biotin-H3K9me as substrate preincubated for 10 mins followed by substrate addition measured after 10 mins by AlphaLisa assay
T2 sequence (Q9Y4C1 whole entry): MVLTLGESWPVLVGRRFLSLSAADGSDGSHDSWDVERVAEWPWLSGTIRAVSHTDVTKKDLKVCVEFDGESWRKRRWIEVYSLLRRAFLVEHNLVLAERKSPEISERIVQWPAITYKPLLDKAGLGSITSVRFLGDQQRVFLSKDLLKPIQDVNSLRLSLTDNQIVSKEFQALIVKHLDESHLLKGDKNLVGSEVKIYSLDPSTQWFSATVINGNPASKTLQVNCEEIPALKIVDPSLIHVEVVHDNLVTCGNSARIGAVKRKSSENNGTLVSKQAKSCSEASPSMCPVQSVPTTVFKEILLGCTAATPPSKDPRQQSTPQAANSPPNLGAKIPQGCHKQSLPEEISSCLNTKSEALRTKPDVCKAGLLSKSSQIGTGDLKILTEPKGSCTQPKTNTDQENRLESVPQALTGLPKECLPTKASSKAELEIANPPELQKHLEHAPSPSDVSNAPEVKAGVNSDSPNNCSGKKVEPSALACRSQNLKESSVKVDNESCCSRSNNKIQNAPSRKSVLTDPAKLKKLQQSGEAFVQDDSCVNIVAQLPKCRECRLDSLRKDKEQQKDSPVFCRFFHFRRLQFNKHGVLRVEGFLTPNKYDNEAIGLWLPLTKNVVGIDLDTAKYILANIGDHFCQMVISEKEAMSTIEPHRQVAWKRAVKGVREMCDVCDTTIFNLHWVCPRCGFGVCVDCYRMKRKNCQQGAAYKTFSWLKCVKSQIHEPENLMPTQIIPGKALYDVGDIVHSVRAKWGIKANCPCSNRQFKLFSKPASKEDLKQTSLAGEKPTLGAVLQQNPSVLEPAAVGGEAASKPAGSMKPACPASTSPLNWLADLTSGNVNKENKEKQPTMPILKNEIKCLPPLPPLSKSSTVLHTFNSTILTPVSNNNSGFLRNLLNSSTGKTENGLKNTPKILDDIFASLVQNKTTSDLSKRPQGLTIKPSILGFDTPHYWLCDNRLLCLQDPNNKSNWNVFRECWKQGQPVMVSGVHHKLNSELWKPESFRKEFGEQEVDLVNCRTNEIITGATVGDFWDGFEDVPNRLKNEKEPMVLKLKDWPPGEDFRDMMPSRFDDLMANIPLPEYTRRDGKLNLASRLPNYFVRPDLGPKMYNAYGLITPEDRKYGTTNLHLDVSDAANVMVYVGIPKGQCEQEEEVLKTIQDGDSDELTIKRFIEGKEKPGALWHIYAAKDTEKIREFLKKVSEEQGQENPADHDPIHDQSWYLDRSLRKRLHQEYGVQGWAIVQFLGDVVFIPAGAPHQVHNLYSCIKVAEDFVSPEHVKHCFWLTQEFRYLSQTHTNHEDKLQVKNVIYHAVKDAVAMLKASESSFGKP

In the case of `CCCCCCCCOC(=O)c1ccc(O)c2ncccc12`, the IC50 [1] is reported as 3.9 µM.

`Cc1ccsc1C(NC(=O)c1ccccc1)c1cc(Cl)c2cccnc2c1O` (racemic) showed an IC50 [2] of 5 µM.

Work on `CCN(CC)CCCCNCc1cc(C=O)ccn1` yielded an EC50 [3] of under 0.25 µM and an IC50 [4] of over 2.5 µM.

`CCN(CCN(C)C)C(=O)CNCc1cc(CNC(=O)C(F)(F)F)ccn1` showed an IC50 [4] of over 2.5 µM.

Reference: ChEMBL document CHEMBL3784917, “Recent Progress in Histone Demethylase Inhibitors” (J Med Chem, 2016)
